Entries after “also recorded” stand apart in the source; their conditions may differ. Where no end group is shown, it is not given here. TMR = tetramethylrhodamine dye
T1: TMR-E2F2^TD peptide (human)
T1 chain: {TMR}-QDDYLWGLEAGEGISDLFD


What was measured:
[1] = target: phosphorylated Rb^NP–E2F^TMR (Homo sapiens, UniProt P06400, DEL245-267/DEL582-642); assay: FP EC50 measurement of Rb activation; format: biochemical; conditions: 20 nM phosphorylated Rb^NP, 10 nM E2F^TMR, Figure 3b
Rb = conditions: LxCxE-like peptides; cited from earlier work
[2] = target: E2F2 transactivation domain peptide (E2FTMR) 409-428 (UniProt Q14209); assay: fluorescence polarization, single concentration, 384-well; conditions: reference: unphosphorylated RbNP; sites T356,T373
[3] = test system: Rb Q736A/K740A docking interface mutant; assay: E2F^TD binding to Rb with mutated docking interface; format: biochemical; conditions: Supporting Information Figure 3
TMR-E2F2^TD peptide = target: T1, TMR-E2F2^TD peptide; assay: fluorescence polarisation

Molecule | effect in the Rb activation assay (in words) [1] | affinity for Rb (in words) (Rb) | FP ratio (TMR-E2F2^TD peptide) | further results
MEHQLLCCEVETIRRAY [cyclin D] | do not show activity; also recorded: no effect | weak affinity | – | –
Rb (retinoblastoma protein; RbNP construct) 55-787 (from UniProt P06400) Cdk2–CycA phosphorylated RbNP | – | – | – | other: FP ratio [2]: weaker; reference ~165
TDLEASLLSFEKLDRAphosSPDLWPE [LIN52] | do not show activity; also recorded: no effect | weak affinity | – | –
E7 protein: full length HPV E7 protein (protein) MHGDTPTLHEYMLDLQPETTDLYCYEQLNDSSEEEDEIDGPAGQAEPDRAHYNIVTFCCKCDSTLRLCVQSTHVDIRTLEDLLMGTLGIVCPICSQKP | – | – | – | effect on E2F^TD binding to Rb with mutated docking interface [3]: do not affect E2F^TD binding to Rb
phosphorylated Rb^NP (residues 55-787, Δ245-267, Δ582-642, phosphorylated by Cdk2-CycA) (domain or fragment, UniProt P06400 55-787, looked up, quantitative phosphorylation on two sites (the construct contains the two sites T356 and T373)) PDFTALCQKLKIPDHVRERAWLTWEKVSSVDGVLGGYIQKKKELWGICIFIAAVDLDEMSFTFTELQKNIEISVHKFFNLLKEIDTSTKVDNAMSRLLKKYDVLFALFSKLERTCELIYLTQPSSSISTEINSALVLKVSWITFLLAKGEVLQMEDDLVISFQLMLCVLDYFIKLSPPMLLKEPYKTAVIENDTRIIEVLCKEHECNIDEVKNVYFKNFIPFMNSLGLVTSNGLPEVENLSKRYEEIYLKNKDLDARLFLDHDKTLQTDSIDSFETQRTPRKSNLDEEVNVIPPHTPVRTVMNTIQQLMMILNSASDQPSENLISYFNNCTVNPKESILKRVKDIGYIFKEKFAKAVGQGCVEIGSQRYKLGVRLYYRVMESMLKSEEERLSIQNFSKLLNDNIFHMSLLACALEVVMATYSRSTSQNLDSGTDLSFPWILNVLNLKAFDFYKVIESFIKAEGNLTREMIKHLERCEHRIMESLAWLSDSPLFDLIKQSKDREGKSTSLSLFYKKVYRLAYLRLNTLCERLLSEHPELEHIIWTLFQHTLQNEYELMRDRHLDQIMMCSMYGICKVKNIDLKFKIIVTAYKDLPHAVQETFKRVLIKEEEYDSIIVFYNSVFMQRLKTNILQYASTRPPTLSPIPHIPR | – | – | ~60 FP ratio | –
unphosphorylated Rb^NP (Rb N-terminal domain and pocket domain, residues 55-787, Δ245-267, Δ582-642) (domain or fragment, UniProt P06400 55-787, looked up) PDFTALCQKLKIPDHVRERAWLTWEKVSSVDGVLGGYIQKKKELWGICIFIAAVDLDEMSFTFTELQKNIEISVHKFFNLLKEIDTSTKVDNAMSRLLKKYDVLFALFSKLERTCELIYLTQPSSSISTEINSALVLKVSWITFLLAKGEVLQMEDDLVISFQLMLCVLDYFIKLSPPMLLKEPYKTAVIENDTRIIEVLCKEHECNIDEVKNVYFKNFIPFMNSLGLVTSNGLPEVENLSKRYEEIYLKNKDLDARLFLDHDKTLQTDSIDSFETQRTPRKSNLDEEVNVIPPHTPVRTVMNTIQQLMMILNSASDQPSENLISYFNNCTVNPKESILKRVKDIGYIFKEKFAKAVGQGCVEIGSQRYKLGVRLYYRVMESMLKSEEERLSIQNFSKLLNDNIFHMSLLACALEVVMATYSRSTSQNLDSGTDLSFPWILNVLNLKAFDFYKVIESFIKAEGNLTREMIKHLERCEHRIMESLAWLSDSPLFDLIKQSKDREGKSTSLSLFYKKVYRLAYLRLNTLCERLLSEHPELEHIIWTLFQHTLQNEYELMRDRHLDQIMMCSMYGICKVKNIDLKFKIIVTAYKDLPHAVQETFKRVLIKEEEYDSIIVFYNSVFMQRLKTNILQYASTRPPTLSPIPHIPR | – | – | ~165 FP ratio | –

From article PMC5117131 (ACS chemical biology, 2016)
